Patent US20220370453A1 (Storm Therapeutics Ltd, priority 2019, published 2022)

Legend:
BCDIN3D [1] = molecular target: T1, BCDIN3D (Homo sapiens, UniProt Q7Z5W3); test: BCDIN3D InCellPulse thermal stability assay in transfected A549 cells; format: cell-based; conditions: transiently transfected A549 cells, heat shock 58° C. 15 min
T1 sequence (Q7Z5W3 1-292): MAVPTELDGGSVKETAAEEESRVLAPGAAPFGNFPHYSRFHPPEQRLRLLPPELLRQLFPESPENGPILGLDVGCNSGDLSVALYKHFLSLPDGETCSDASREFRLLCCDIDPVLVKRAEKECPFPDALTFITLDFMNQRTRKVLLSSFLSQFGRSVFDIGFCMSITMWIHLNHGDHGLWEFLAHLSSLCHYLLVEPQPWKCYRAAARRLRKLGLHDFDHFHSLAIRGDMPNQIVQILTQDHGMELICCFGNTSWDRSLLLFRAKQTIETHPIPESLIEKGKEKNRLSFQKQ
Outline: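 A549 cells transiently expressing BCDIN3D N-terminally fused to ePL ProLabel tag, 1500 cells/well, pre-incubated 1 h at 37 °C with compound (0.6% DMSO). Heat shock 58 °C for 15 min; remaining soluble fusion detected by split β-galactosidase complementation luminescence.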

BCDIN3D [2] = molecular target: T1, BCDIN3D; test: BCDIN3D IC50 RFMS (RapidFire) assay with mini-helix; format: biochemical; conditions: mini-helix substrate 0.2 μM, SAM 6 μM, 25 nM enzyme
Outline: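 25 nM enzyme preincubated 10 min at room temperature with compound (1% DMSO) in 25 mM Tris pH 8.0, 10 mM DTT, 1 mM EDTA, 0.03% BSA. Reaction started with 0.2 μM mini-helix plus 6 μM SAM, run 1 h at 37 °C, quenched with TCA; SAH product quantified by RapidFire MS against isotopic SAH standards.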

Work on Cc1ccc(CNc2nc(NCC(N)CF)nc3c2cnn3C)cc1Cl (stereo not shown) [Compound 3.25, N6-(2-Amino-3-fluoropropyl)-N4-[(3-chloro-4-methylphenyl)methyl]-1-methyl-1H-pyrazolo[3,4-d]pyrimidine-4,6-diamine] yielded an IC50 (BCDIN3D [1]) of 5500 nM and an IC50 (BCDIN3D [2]) of 6170 nM.

Cn1ncc2c(Nc3ccc(C(F)(F)F)cc3)nc(NCC(N)CF)nc21 (stereo not shown) [Compound 3.26, 6-N-(2-amino-3-fluoropropyl)-1-methyl-4-N-[4-(trifluoromethyl)phenyl]pyrazolo[3,4-d]pyrimidine-4,6-diamine] gave an IC50 (BCDIN3D [1]) of 4030 nM and an IC50 (BCDIN3D [2]) of 3000 nM.

With COCC(N)CNc1nc(NCc2ccc(C)c(Cl)c2)c2cnn(C)c2n1 (stereo not shown) [Compound 3.27, 6-N-(2-amino-3-methoxypropyl)-4-N-[(3-chloro-4-methylphenyl)methyl]-1-methylpyrazolo[3,4-d]pyrimidine-4,6-diamine] the IC50 (BCDIN3D [1]) was 4790 nM and the IC50 (BCDIN3D [2]) was 4310 nM.

Cn1ncc2c(Nc3ccc(C(F)(F)F)cc3)nc(NCC3(N)COC3)nc21 [Compound 3.28, 6-N-[(3-Aminooxetan-3-yl)methyl]-1-methyl-4-N-[4-(trifluoromethyl)phenyl]pyrazolo[3,4-d]pyrimidine-4,6-diamine] was tested, and the IC50 (BCDIN3D [1]) was 4670 nM and the IC50 (BCDIN3D [2]) was 383 nM.

Cn1ncc2c(Nc3ccccc3)nc(NCC3(N)COC3)nc21 [Compound 3.29, 6-N-[(3-Aminooxetan-3-yl)methyl]-1-methyl-4-N-phenylpyrazolo[3,4-d]pyrimidine-4,6-diamine] gave an IC50 (BCDIN3D [1]) of 60000 nM and an IC50 (BCDIN3D [2]) of 4920 nM.

Cc1ccc(CNc2nc(NC3CCCCC3N)nc3c2cnn3C)cc1Cl (stereo not shown) [Compound 3.30, N6-(2-aminocyclohexyl)-N4-[(3-chloro-4-methylphenyl)methyl]-1-methyl-1H-pyrazolo[3,4-d]pyrimidine-4,6-diamine] gave an IC50 (BCDIN3D [1]) of 1410 nM and an IC50 (BCDIN3D [2]) of 1140 nM.

For [2H]C([2H])([2H])n1ncc2c(NC(C)(C)C)nc(NCC(C)(N)c3ccccc3)nc21 (stereo not shown) [Compound 4.01, N6-(2-Amino-2-phenyl-propyl)-N4-tert-butyl-1-(trideuteriomethyl)pyrazolo[3,4-d]pyrimidine-4,6-diamine], the IC50 (BCDIN3D [1]) was 1940 nM and the IC50 (BCDIN3D [2]) was 325 nM.

Compound CCn1ncc2c(NC(C)C)nc(NCC(N)c3ccccc3)nc21 (stereo not shown) [Compound 4.02, 6-N-(2-Amino-2-phenylethyl)-1-ethyl-4-N-propan-2-ylpyrazolo[3,4-d]pyrimidine-4,6-diamine] has an IC50 (BCDIN3D [1]) of 5670 nM and an IC50 (BCDIN3D [2]) of 4280 nM.

Cc1ccc(CNc2nc(NCC(N)c3ccccc3)nc3c2cnn3C)cc1Cl (stereo not shown) [Compound 4.03, 6-N-(2-amino-2-phenylethyl)-4-N-[(3-chloro-4-methylphenyl)methyl]-1-methylpyrazolo[3,4-d]pyrimidine-4,6-diamine] gave an IC50 (BCDIN3D [1]) of 166 nM and an IC50 (BCDIN3D [2]) of 62.5 nM.

Cn1ncc2c(NCc3ccc(F)cc3F)nc(NCC(N)c3ccccc3)nc21 (stereo not shown) [Compound 4.04, 6-N-(2-amino-2-phenylethyl)-4-N-[(2,4-difluorophenyl)methyl]-1-methylpyrazolo[3,4-d]pyrimidine-4,6-diamine] gave an IC50 (BCDIN3D [1]) of 820 nM and an IC50 (BCDIN3D [2]) of 424 nM.

For Cn1ncc2c(NCc3ccc(F)c(Cl)c3)nc(NCC(N)c3ccccc3)nc21 (stereo not shown) [Compound 4.05, 6-N-(2-amino-2-phenylethyl)-4-N-[(3-chloro-4-fluorophenyl)methyl]-1-methylpyrazolo[3,4-d]pyrimidine-4,6-diamine], the IC50 (BCDIN3D [1]) was 275 nM and the IC50 (BCDIN3D [2]) was 109 nM.

Cn1ncc2c(NCc3cccc(Br)c3)nc(NCC(N)c3ccccc3)nc21 (stereo not shown) [Compound 4.06, 6-N-(2-amino-2-phenylethyl)-4-N-[(3-bromophenyl)methyl]-1-methylpyrazolo[3,4-d]pyrimidine-4,6-diamine] was tested, and the IC50 (BCDIN3D [1]) was 139 nM and the IC50 (BCDIN3D [2]) was 87.2 nM.

Cn1ncc2c(NCc3ccc(Br)cc3)nc(NCC(N)c3ccccc3)nc21 (stereo not shown) [Compound 4.07, 6-N-(2-amino-2-phenylethyl)-4-N-[(4-bromophenyl)methyl]-1-methylpyrazolo[3,4-d]pyrimidine-4,6-diamine] showed an IC50 (BCDIN3D [1]) of 282 nM and an IC50 (BCDIN3D [2]) of 132 nM.

Work on Cn1ncc2c(NCc3ccc(C(F)(F)F)nc3)nc(NCC(N)c3ccccc3)nc21 (stereo not shown) [Compound 4.08, 6-N-(2-amino-2-phenylethyl)-1-methyl-4-N-[[6-(trifluoromethyl)pyridin-3-yl]methyl]pyrazolo[3,4-d]pyrimidine-4,6-diamine] yielded an IC50 (BCDIN3D [1]) of 2950 nM and an IC50 (BCDIN3D [2]) of 1080 nM.

Work on COc1ccc(CNc2nc(NCC(N)c3ccccc3)nc3c2cnn3C)c(OC)c1 (stereo not shown) [Compound 4.09, N6-(2-amino-2-phenyl-ethyl)-N4-[(2,4-dimethoxyphenyl)methyl]-1-methyl-pyrazolo[3,4-d]pyrimidine-4,6-diamine] yielded an IC50 (BCDIN3D [1]) of 505 nM and an IC50 (BCDIN3D [2]) of 178 nM.

With Cn1ncc2c(Nc3ccc(F)cc3)nc(NCC(N)c3ccccc3)nc21 (stereo not shown) [Compound 4.10, 6-N-(2-amino-2-phenylethyl)-4-N-(4-fluorophenyl)-1-methylpyrazolo[3,4-d]pyrimidine-4,6-diamine] the IC50 (BCDIN3D [1]) was 323 nM and the IC50 (BCDIN3D [2]) was 71.7 nM.

For Cn1ncc2c(Nc3cnc(C(F)(F)F)nc3)nc(NCC(C)(N)c3ccccc3)nc21 (stereo not shown) [Compound 4.11, N6-(2-amino-2-phenyl-propyl)-1-methyl-N4-[2-(trifluoromethyl)pyrimidin-5-yl]pyrazolo[3,4-d]pyrimidine-4,6-diamine], the IC50 (BCDIN3D [1]) was 2160 nM and the IC50 (BCDIN3D [2]) was 168 nM.

With Cn1ncc2c(Nc3ccc(OC(F)(F)F)cc3)nc(NCC(C)(N)c3ccccc3)nc21 (stereo not shown) [Compound 4.12, N6-(2-amino-2-phenyl-propyl)-1-methyl-N4-[4-(trifluoromethoxy)phenyl]pyrazolo[3,4-d]pyrimidine-4,6-diamine] the IC50 (BCDIN3D [1]) was 186 nM and the IC50 (BCDIN3D [2]) was 52.1 nM.

Compound Cn1ncc2c(Nc3ccc(Cl)c(Cl)c3)nc(NCC(C)(N)c3ccccc3)nc21 (stereo not shown) [Compound 4.13, N6-(2-amino-2-phenyl-propyl)-N4-(3,4-dichlorophenyl)-1-methyl-pyrazolo[3,4-d]pyrimidine-4,6-diamine] has an IC50 (BCDIN3D [1]) of 258 nM and an IC50 (BCDIN3D [2]) of 86.6 nM.

Cn1ncc2c(Nc3ccc(OC(F)F)cc3)nc(NCC(N)c3ccccc3)nc21 (stereo not shown) [Compound 4.14, 6-N-(2-amino-2-phenylethyl)-4-N-[4-(difluoromethoxy)phenyl]-1-methylpyrazolo[3,4-d]pyrimidine-4,6-diamine] was tested, and the IC50 (BCDIN3D [1]) was 206 nM and the IC50 (BCDIN3D [2]) was 89.5 nM.

In the case of Cn1ncc2c(Nc3ccc(OC(F)F)cc3)nc(NCC(C)(N)c3ccccc3)nc21 (stereo not shown) [Compound 4.15, 6-N-(2-amino-2-phenylpropyl)-4-N-[4-(difluoromethoxy)phenyl]-1-methylpyrazolo[3,4-d]pyrimidine-4,6-diamine], the IC50 (BCDIN3D [1]) is reported as 295 nM and the IC50 (BCDIN3D [2]) is reported as 69.4 nM.

For Cn1ncc2c(Nc3ccc(OC(F)F)cc3)nc(NC[C@H](N)c3ccccc3)nc21 [Compound 4.16, N6-[(2R)-2-amino-2-phenyl-ethyl]-N4-[4-(difluoromethoxy)phenyl]-1-methyl-pyrazolo[3,4-d]pyrimidine-4,6-diamine], the IC50 (BCDIN3D [1]) was 46.3 nM and the IC50 (BCDIN3D [2]) was 40.8 nM.

With Cn1ncc2c(Nc3ccc(C(F)(F)F)cc3)nc(NCC(N)c3ccccc3)nc21 (stereo not shown) [Compound 4.17, 6-N-(2-amino-2-phenylethyl)-1-methyl-4-N-[4-(trifluoromethyl)phenyl]pyrazolo[3,4-d]pyrimidine-4,6-diamine] the IC50 (BCDIN3D [1]) was 178 nM and the IC50 (BCDIN3D [2]) was 50.1 nM.

Cc1nn(C)c2nc(NCC(N)c3ccccc3)nc(Nc3ccc(C(F)(F)F)cc3)c12 (stereo not shown) [Compound 4.18, 6-N-(2-amino-2-phenylethyl)-1,3-dimethyl-4-N-[4-(trifluoromethyl)phenyl]pyrazolo[3,4-d]pyrimidine-4,6-diamine] gave an IC50 (BCDIN3D [1]) of 270 nM and an IC50 (BCDIN3D [2]) of 288 nM.

Cn1ncc2c(Nc3ccc(C(F)(F)F)cc3)nc(NCC(C)(N)c3ccccc3)nc21 (stereo not shown) [Compound 4.19, N6-(2-amino-2-phenyl-propyl)-1-methyl-N4-[4-(trifluoromethyl)phenyl]pyrazolo[3,4-d]pyrimidine-4,6-diamine] gave an IC50 (BCDIN3D [1]) of 86.4 nM and an IC50 (BCDIN3D [2]) of 36.1 nM.

Compound [2H]C([2H])([2H])n1ncc2c(Nc3ccc(C(F)(F)F)cc3)nc(NCC(N)c3ccccc3)nc21 (stereo not shown) [Compound 4.20, N6-(2-amino-2-phenyl-ethyl)-1-(trideuteriomethyl)-N4-[4-(trifluoromethyl)phenyl]pyrazolo[3,4-d]pyrimidine-4,6-diamine] has an IC50 (BCDIN3D [1]) of 60.4 nM and an IC50 (BCDIN3D [2]) of 38.5 nM.

Compound [2H]C([2H])([2H])n1ncc2c(Nc3ccc(C(F)(F)F)cc3)nc(NCC(C)(N)c3ccccc3)nc21 (stereo not shown) [Compound 4.21, N6-(2-amino-2-phenyl-propyl)-1-(trideuteriomethyl)-N4-[4-(trifluoromethyl)phenyl]pyrazolo[3,4-d]pyrimidine-4,6-diamine] has an IC50 (BCDIN3D [1]) of 218 nM and an IC50 (BCDIN3D [2]) of 42.8 nM.

For Cn1ncc2c(Nc3ccc(C(F)(F)F)cc3)nc(NC[C@H](N)c3ccccc3)nc21 [Compound 4.22, 6-N-[(2R)-2-amino-2-phenylethyl]-1-methyl-4-N-[4-(trifluoromethyl)phenyl]pyrazolo[3,4-d]pyrimidine-4,6-diamine], the IC50 (BCDIN3D [1]) was 29.9 nM and the IC50 (BCDIN3D [2]) was 34.1 nM.

In the case of Cn1ncc2c(Nc3ccc(C(F)(F)F)cc3)nc(NC[C@@H](N)c3ccccc3)nc21 [Compound 4.23, 6-N-[(2S)-2-amino-2-phenylethyl]-1-methyl-4-N-[4-(trifluoromethyl)phenyl]pyrazolo[3,4-d]pyrimidine-4,6-diamine], the IC50 (BCDIN3D [1]) is reported as 202 nM and the IC50 (BCDIN3D [2]) is reported as 1520 nM.
